Test results reported in paper PMC4676015, “Variant fatty acid-like molecules Conjugation, novel approaches for extending the stability of therapeutic peptides” (Scientific Reports, 2015).

Experiments:
[1] = Blood retention time measurement; settings: 500 μg/kg s.c., Wistar rats, n = 5, GLP-1 (7–37) ELISA; for increase of circulating amount (AUC GLP-1 (7-37)) compared with native GLP-1: 0.5-96 h
DPP IV enzyme = biological target: T1, DPP IV enzyme (Homo sapiens, UniProt P27487); test: Stability against DPP IV proteolysis with or without HSA; format: in vitro ADME; settings: for detectability of full-length peptide at 24 h / degradation in DPP IV proteolysis compared with wild-type GLP-1, within 24 h: DPP IV 0.1 mg/ml, peptide 1 mg/ml; for detectability of full-length peptide at 24 h: pH 7.0, in the presence of human serum albumin (2%); for detectability of full-length peptide at 24 h / AUC0–24 h, amount of undigested GLP-1 fragments compared with wild-type GLP-1 / AUCGLP-1(7–37) in proteolysis solution compared to native GLP-1 / degradation in DPP IV proteolysis compared with wild-type GLP-1, within 24 h: 37 °C, GLP-1 (7–37) ELISA; for AUC0–24 h, amount of undigested GLP-1 fragments compared with wild-type GLP-1 / AUCGLP-1(7–37) in proteolysis solution compared to native GLP-1: DPP IV proteolysis solution, P < 0.01; for AUC0–24 h, amount of undigested GLP-1 fragments compared with wild-type GLP-1: 0-24 h; for degradation rate against DPP IV compared with compounds 6 and 21, respectively: DPP IV proteolysis, same carbon chain length without free carboxyl group as comparator; for degradation in DPP IV proteolysis compared with wild-type GLP-1, within 24 h: 25 mM potassium phosphate, 25 mM KCl, 5 mM MgCl2, pH 7.0, 2% HSA
T1 construct: purchased Sigma-Aldrich

GLP-1 receptor (GLP-1R) = biological target: T2, GLP-1 receptor (GLP-1R) (Rattus norvegicus, UniProt P32301); test: GLP-1 receptor binding assay (cellular ELISA)
T2 construct: endogenous in cells; host or cells: rat INS-1 cells
T2 sequence (P32301 22-463): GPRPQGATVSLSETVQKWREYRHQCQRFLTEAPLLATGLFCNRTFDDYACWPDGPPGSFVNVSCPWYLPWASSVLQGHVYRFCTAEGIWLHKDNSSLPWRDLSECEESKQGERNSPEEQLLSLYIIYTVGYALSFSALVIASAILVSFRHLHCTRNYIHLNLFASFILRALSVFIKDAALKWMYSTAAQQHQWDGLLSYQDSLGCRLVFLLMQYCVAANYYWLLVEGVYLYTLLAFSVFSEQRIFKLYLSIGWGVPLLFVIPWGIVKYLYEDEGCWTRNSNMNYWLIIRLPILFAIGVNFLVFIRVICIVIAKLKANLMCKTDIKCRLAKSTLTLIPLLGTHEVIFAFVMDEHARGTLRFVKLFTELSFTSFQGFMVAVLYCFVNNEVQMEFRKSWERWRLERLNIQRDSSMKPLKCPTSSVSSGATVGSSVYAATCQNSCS
Method in brief: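 Cells were fixed with 4% paraformaldehyde, quenched with 2% glycine (pH 7.5), then incubated with peptides for 2 h at 37 °C, washed and blocked with 5% BSA. Absorbance was read at 450 nm. Kd was fitted from peptide concentration versus absorbance.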

Wistar rats [2] = test: Toxicity study of compound 24 in Wistar rats (blood biochemistry, haematology); format: in vivo; settings: Wistar rats and Kunming mice, GLP guideline of China
Method: Wistar rats (n = 8) and Kunming mice (n = 30) were employed in this study to investigate the acute toxicity of compound 24. Compound 24 was intraperitoneally administered with three doses of 5, 15 and 50 mg/kg/2 days for 30 days. Controls received a similar volume of sodium dihydrogen phosphate. At the end of the experimental period, overnight fasted animals were sacrificed by cervical decapitation under light ether anesthesia and blood was collected, serum was separated by centrifuging at 3,000 rpm for 10 min. The serum was used for the assay of the biochemical parameters using Chemistry Analyzer […] (Vital, Netherlands).

Wistar rats [3] = test: Single-dose glucoregulatory assay (glucose tolerance test); format: in vivo; settings: calculated from the single dose glucose tolerance test in rats
Method: In this assay, the derivatives were administered once, and the blood glucose levels were monitored over 120 h. It was presumed that the apparent half-lives of the derivatives could be obtained by this single-dose glucose tolerance test, which would be beneficial for the determination of the administration frequency in future long-term glucose tolerance tests. Each derivative (300 μg/kg body weight) was subcutaneously injected into fasting male Wistar rats (n = 7 per group) 30 min prior to glucose administration. GLP-1 and saline were injected into the control animals. Rats were given 2 g glucose/kg body weight via intraperitoneal injections. Blood was drawn from the tail vein, and glucose levels were measured using a glucometer 30 min after glucose administration. Chronic glucose injections (2 g/kg body weight) were administered 30 min prior to each blood glucose measurement time point during the 120-h experimental period.

[4] = cited from earlier work

T1 sequence (P27487 whole entry, species assumed, the tested form may be a part): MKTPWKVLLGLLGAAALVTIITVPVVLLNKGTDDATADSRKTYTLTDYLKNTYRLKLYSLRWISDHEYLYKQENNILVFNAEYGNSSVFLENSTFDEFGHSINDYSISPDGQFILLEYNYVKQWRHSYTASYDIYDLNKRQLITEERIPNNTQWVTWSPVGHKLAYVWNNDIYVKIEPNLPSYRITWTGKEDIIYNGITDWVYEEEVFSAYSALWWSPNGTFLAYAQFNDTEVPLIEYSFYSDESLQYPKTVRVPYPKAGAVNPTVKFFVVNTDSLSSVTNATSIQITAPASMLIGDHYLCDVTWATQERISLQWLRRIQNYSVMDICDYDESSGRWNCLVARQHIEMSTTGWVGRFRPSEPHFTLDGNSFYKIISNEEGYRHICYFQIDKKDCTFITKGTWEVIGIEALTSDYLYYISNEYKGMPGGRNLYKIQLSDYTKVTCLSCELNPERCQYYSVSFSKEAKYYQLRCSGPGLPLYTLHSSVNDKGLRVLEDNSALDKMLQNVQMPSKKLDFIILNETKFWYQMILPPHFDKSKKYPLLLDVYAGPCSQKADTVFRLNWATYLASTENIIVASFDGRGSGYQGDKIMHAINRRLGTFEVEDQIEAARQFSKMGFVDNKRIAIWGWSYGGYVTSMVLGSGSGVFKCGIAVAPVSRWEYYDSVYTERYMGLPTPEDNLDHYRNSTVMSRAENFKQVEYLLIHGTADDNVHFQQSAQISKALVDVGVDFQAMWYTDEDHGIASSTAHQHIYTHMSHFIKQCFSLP

**Q.** Which “increase of circulating amount (AUC GLP-1 (7-37)) compared with native GLP-1” value [1] does the source give for `CC[C@H](C)[C@H](NC(=O)[C@H](Cc1ccccc1)NC(=O)[C@H](CCC(=O)O)NC(=O)[C@H](CCCCN)NC(=O)[C@H](C)NC(=O)[C@H](C)NC(=O)[C@H](CCC(N)=O)NC(=O)CNC(=O)[C@H](CCC(=O)O)NC(=O)[C@H](CC(C)C)NC(=O)[C@H](Cc1ccc(O)cc1)NC(=O)[C@H](CO)NC(=O)[C@H](CO)NC(=O)[C@@H](NC(=O)[C@H](CC(=O)O)NC(=O)[C@H](CO)NC(=O)[C@@H](NC(=O)[C@H](Cc1ccccc1)NC(=O)[C@@H](NC(=O)CNC(=O)[C@H](CCC(=O)O)NC(=O)[C@H](C)NC(=O)[C@@H](N)Cc1c[nH]cn1)[C@@H](C)O)[C@@H](C)O)C(C)C)C(=O)N[C@@H](C)C(=O)N[C@@H](Cc1c[nH]c2ccccc12)C(=O)N[C@@H](CC(C)C)C(=O)N[C@H](C(=O)N[C@@H](CC(=O)NCCCCCCCCCCCC(=O)O)C(=O)NCC(=O)N[C@@H](CCCNC(=N)N)C(=O)NCC(=O)O)C(C)C` [compound 22] here?
**A.** 2.6 fold

**Q.** And the “blood retention / serum level behaviour” value [1]?
**A.** extended the stabilities in vivo

**Q.** What about the “detectability of full-length peptide at 24 h” value (from here on “detectability”) (DPP IV enzyme) of the same compound?
**A.** still detectable at 24 h

**Q.** What about the “AUC0–24 h, amount of undigested GLP-1 fragments compared with wild-type GLP-1” value (DPP IV enzyme) of the same compound?
**A.** approximately 3.5 fold

**Q.** And the “AUCGLP-1(7–37) in proteolysis solution compared to native GLP-1” value (DPP IV enzyme)?
**A.** significantly increased

**Q.** And the “degradation rate against DPP IV compared with compounds 6 and 21, respectively” value (DPP IV enzyme)?
**A.** significantly lower degradation rates

**Q.** What about the Kd (GLP-1 receptor (GLP-1R)) of the same compound?
**A.** 21.1 ± 2.34 nM

**Q.** For `CC[C@H](C)[C@H](NC(=O)[C@H](Cc1ccccc1)NC(=O)[C@H](CCC(=O)NCCCCCCCCCCCC(=O)O)NC(=O)[C@H](CCCCN)NC(=O)[C@H](C)NC(=O)[C@H](C)NC(=O)[C@H](CCC(N)=O)NC(=O)CNC(=O)[C@H](CCC(=O)O)NC(=O)[C@H](CC(C)C)NC(=O)[C@H](Cc1ccc(O)cc1)NC(=O)[C@H](CO)NC(=O)[C@H](CO)NC(=O)[C@@H](NC(=O)[C@H](CC(=O)O)NC(=O)[C@H](CO)NC(=O)[C@@H](NC(=O)[C@H](Cc1ccccc1)NC(=O)[C@@H](NC(=O)CNC(=O)[C@H](CCC(=O)O)NC(=O)[C@H](C)NC(=O)[C@@H](N)Cc1c[nH]cn1)[C@@H](C)O)[C@@H](C)O)C(C)C)C(=O)N[C@@H](C)C(=O)N[C@@H](Cc1c[nH]c2ccccc12)C(=O)N[C@@H](CC(C)C)C(=O)N[C@H](C(=O)N[C@@H](CCCCN)C(=O)NCC(=O)N[C@@H](CCCNC(=N)N)C(=O)NCC(=O)O)C(C)C` [compound 24], which “acute toxicity and blood biochemistry tests” value (Wistar rats [2]) is on record?
**A.** no toxicity was observed

**Q.** And the observed half-life (Wistar rats [3])?
**A.** 9.6 h

**Q.** And the “increase of circulating amount (AUC GLP-1 (7-37)) compared with native GLP-1” value [1]?
**A.** 2.7 fold

**Q.** And the “detectability” value (DPP IV enzyme)?
**A.** still detectable at 24 h

**Q.** What about the “AUC0–24 h, amount of undigested GLP-1 fragments compared with wild-type GLP-1” value (DPP IV enzyme) of the same compound?
**A.** approximately 3.5 fold

**Q.** What about the “AUCGLP-1(7–37) in proteolysis solution compared to native GLP-1” value (DPP IV enzyme) of the same compound?
**A.** significantly increased

**Q.** And the “degradation rate against DPP IV compared with compounds 6 and 21, respectively” value (DPP IV enzyme)?
**A.** significantly lower degradation rates

**Q.** And the Kd (GLP-1 receptor (GLP-1R))?
**A.** 17.6 ± 1.76 nM

**Q.** For `CCCCCCCCCCCCCCCCNC(=O)CC[C@H](NC(=O)[C@H](CCCCN)NC(=O)[C@H](C)NC(=O)[C@H](C)NC(=O)[C@H](CCC(N)=O)NC(=O)CNC(=O)[C@H](CCC(=O)O)NC(=O)[C@H](CC(C)C)NC(=O)[C@H](Cc1ccc(O)cc1)NC(=O)[C@H](CO)NC(=O)[C@H](CO)NC(=O)[C@@H](NC(=O)[C@H](CC(=O)O)NC(=O)[C@H](CO)NC(=O)[C@@H](NC(=O)[C@H](Cc1ccccc1)NC(=O)[C@@H](NC(=O)CNC(=O)[C@H](CCC(=O)O)NC(=O)[C@H](C)NC(=O)[C@@H](N)Cc1c[nH]cn1)[C@@H](C)O)[C@@H](C)O)C(C)C)C(=O)N[C@@H](Cc1ccccc1)C(=O)N[C@H](C(=O)N[C@@H](C)C(=O)N[C@@H](Cc1c[nH]c2ccccc12)C(=O)N[C@@H](CC(C)C)C(=O)N[C@H](C(=O)N[C@@H](CCCCN)C(=O)NCC(=O)N[C@@H](CCCNC(=N)N)C(=O)NCC(=O)O)C(C)C)[C@@H](C)CC` [compound 18], which “degradation in DPP IV proteolysis compared with wild-type GLP-1, within 24 h” value (DPP IV enzyme) is on record?
**A.** slower degradation rates

**Q.** And the “detectability” value (DPP IV enzyme)?
**A.** still detectable at 24 h

**Q.** What about the Kd (GLP-1 receptor (GLP-1R)) of the same compound?
**A.** 16.5 ± 2.17 nM

**Q.** With `CC[C@H](C)[C@H](NC(=O)[C@H](Cc1ccccc1)NC(=O)[C@H](CCC(=O)O)NC(=O)[C@H](CCCCN)NC(=O)[C@H](C)NC(=O)[C@H](C)NC(=O)[C@H](CCC(N)=O)NC(=O)CNC(=O)[C@H](CCC(=O)O)NC(=O)[C@H](CC(C)C)NC(=O)[C@H](Cc1ccc(O)cc1)NC(=O)[C@H](CO)NC(=O)[C@H](CO)NC(=O)[C@@H](NC(=O)[C@H](CC(=O)O)NC(=O)[C@H](CO)NC(=O)[C@@H](NC(=O)[C@H](Cc1ccccc1)NC(=O)[C@@H](NC(=O)CNC(=O)[C@H](CCC(=O)O)NC(=O)[C@H](C)NC(=O)[C@@H](N)Cc1c[nH]cn1)[C@@H](C)O)[C@@H](C)O)C(C)C)C(=O)N[C@@H](C)C(=O)N[C@@H](Cc1c[nH]c2ccccc12)C(=O)N[C@@H](CC(C)C)C(=O)N[C@H](C(=O)N[C@@H](CCCCN)C(=O)NCC(=O)N[C@@H](CCCN=C(N)N)C(=O)NCC(=O)O)C(C)C` [GLP-1, glucagon-like peptide-1] as the compound, how does the “stability (half-life) of native GLP-1” value ([4]; degradation by DPP-IV, reference not given) read?
**A.** 3 to 5 min

**Q.** What about the renal clearance ([4]; in vivo) of the same compound?
**A.** less than 10 min

**Q.** For `CCCCCCCCCCCCCCCC(=O)NCCCC[C@H](NC(=O)[C@@H](NC(=O)[C@H](CC(C)C)NC(=O)[C@H](Cc1c[nH]c2ccccc12)NC(=O)[C@H](C)NC(=O)[C@@H](NC(=O)[C@H](Cc1ccccc1)NC(=O)[C@H](CCC(=O)O)NC(=O)[C@H](CCCCN)NC(=O)[C@H](C)NC(=O)[C@H](C)NC(=O)[C@H](CCC(N)=O)NC(=O)CNC(=O)[C@H](CCC(=O)O)NC(=O)[C@H](CC(C)C)NC(=O)[C@H](Cc1ccc(O)cc1)NC(=O)[C@H](CO)NC(=O)[C@H](CO)NC(=O)[C@@H](NC(=O)[C@H](CC(=O)O)NC(=O)[C@H](CO)NC(=O)[C@@H](NC(=O)[C@H](Cc1ccccc1)NC(=O)[C@@H](NC(=O)CNC(=O)[C@H](CCC(=O)O)NC(=O)[C@H](C)NC(=O)[C@@H](N)Cc1c[nH]cn1)[C@@H](C)O)[C@@H](C)O)C(C)C)[C@@H](C)CC)C(C)C)C(=O)NCC(=O)N[C@@H](CCCNC(=N)N)C(=O)NCC(=O)O` [compound 6], which “degradation in DPP IV proteolysis compared with wild-type GLP-1, within 24 h” value (DPP IV enzyme) is on record?
**A.** slower degradation rates

**Q.** What about the “detectability” value (DPP IV enzyme) of the same compound?
**A.** still detectable at 24 h

**Q.** What about the Kd (GLP-1 receptor (GLP-1R)) of the same compound?
**A.** 13.7 ± 0.88 nM
